Values quoted from earlier work, collected in US20200038317A1, “EXTENDED RELEASE, ABUSE DETERRENT PHARMACEUTICAL COMPOSITIONS” (SpecGX LLC, priority 2012, published 2020).

Settings: at 25° C.

O=C(O)CC(O)(CC(=O)O)C(=O)O [citric acid]
relative humidity at which the plasticizer deliquesces: about 75 % relative humidity
